Values joined by “and” are separate entries in the source; they are usually repeats but may differ in a detail not shown here. Equal entries are not always repeated.
Settings: 101.33 kPa, Liquid; for mass density: Vibrating tube method

CCCCCC[n+]1ccn(C)c1.O=S(=O)([N-]S(=O)(=O)C(F)(F)F)C(F)(F)F
Capillary tube (Ostwald / Ubbelohde) method
Settings | viscosity [mPa·s]
293.25 K | 89.98
298.19 K | 71.11

CCOS(=O)(=O)[O-].CCn1cc[n+](C)c1 [1-ethyl-3-methylimidazolium ethyl sulfate]
Settings | mass density
290.65 K | 1243.24 kg/m3
290.66 K | 1243.24 kg/m3
293.15 K | 1241.55 kg/m3
293.16 K | 1241.54 kg/m3
295.65 K | 1239.85 kg/m3
298.15 K | 1238.14 kg/m3 and 1238.15 kg/m3
298.16 K | 1238.15 kg/m3
300.65 K | 1236.44 kg/m3 and 1236.46 kg/m3
300.66 K | 1236.45 kg/m3
303.15 K | 1234.75 kg/m3 and 1234.76 kg/m3
305.64 K | 1233.06 kg/m3
305.65 K | 1233.06 kg/m3
305.66 K | 1233.06 kg/m3
308.14 K | 1231.37 kg/m3
308.15 K | 1231.37 kg/m3
308.16 K | 1231.37 kg/m3
310.64 K | 1229.68 kg/m3 and 1229.69 kg/m3
310.66 K | 1229.68 kg/m3
313.15 K | 1228 kg/m3
315.64 K | 1226.32 kg/m3
315.66 K | 1226.31 kg/m3
318.15 K | 1224.63 kg/m3 and 1224.64 kg/m3
320.65 K | 1222.96 kg/m3

viscosity [mPa·s]
Settings | 293.14 K | 293.23 K | 298.18 K | 298.19 K | 303.15 K | 308.21 K | 313.14 K | 318.13 K
Capillary tube (Ostwald / Ubbelohde) method | – | 128.62 | 99.37 | – | – | – | – | –
Vibrating wire viscometry | 125.7 | – | – | 97.19 | 76.8 | 61.42 | 50.05 | 41.42

CCOS(=O)(=O)[O-].CC[n+]1cccc(C)c1 [1-ethyl-3-methylpyridinium ethylsulfate]
Capillary tube (Ostwald / Ubbelohde) method
Settings | viscosity [mPa·s]
293.16 K | 182.68
298.13 K | 135.35

Source: the NIST ThermoML archive (doi:10.1007/s10765-013-1487-y)
